From patent US20060052319A9, “Sensitization of cells to cytotoxic agents using oligonucleotides directed to nucleotide excision repair or transcritpion coupled repair genes” (priority 2000, published 2006) come the findings set out here.

One data set concerns XPA mRNA. Kind of data set: RT-PCR analysis of XPA mRNA levels after oligonucleotide transfection. The data set is classed as cell-based. To be noted: A2780/CP70 cells, 200 nM oligonucleotide with lipofectin, FIG. 3. The method, then:
(§1) Total RNA was isolated from 2×10^6 cells using a total RNA isolation kit (S.N.A.P., Invitrogen, Carlsbad, Calif.) as instructed and was quantitated spectrophotometrically via absorbance at 260 nm. RT-PCR analysis was performed using the Superscript One-Step RT-PCR System (Life Technologies, Rockville, Md.). Ten ng samples of total RNA were used for RT-PCR analyses because it was determined that quantities of RT-PCR products derived from XPA and CSB mRNA varied in a linear fashion when RT-PCR was performed on total RNA samples of 1-50 ng. For CSB, primers: […]
(§2) were selected to amplify a 235-bp segment.
(§3) RT-PCR amplification was performed for 40 cycles to detect low mRNA levels while remaining in the linear range of PCR. Aliquots of amplified DNA were resolved via 1.5% agarose gel electrophoresis and visualized by ethidium bromide staining.

The test system of the next data set is CSB mRNA. The experiment in a line: RT-PCR analysis of CSB mRNA levels after oligonucleotide transfection. The data set is classed as cell-based. To be noted: A2780/CP70 cells, 200 nM oligonucleotide with lipofectin, FIG. 3. How it is done: as §1, §2, §3
In data set [1] the test system is A2780/CP70 ovarian carcinoma cells. Kind of data set: MTS cell proliferation assay, sensitization to cisplatin or oxaliplatin after oligonucleotide transfection. The settings on record: for sensitivity of the cells to cisplatin or oxaliplatin (cytotoxicity of both platinum agents) / reduction of the ID50 of cisplatin / reduction of the ID50 of oxaliplatin: A2780/CP70 cells transfected with oligonucleotide, three days in drug, MTS assay; for potentiation of cisplatin or oxaliplatin, dose response curves normalized to HYB 1019-transfected cells: A2780/CP70 cells, normalized to control oligonucleotide. In general terms: Tetrazolium dyes change colour on reduction, which living cells bring about.
Procedure: (§7) The oligonucleotides targeting CSB (969 and 971) were tested for their ability to sensitize A2780/CP70 cells to cisplatin or oxaliplatin. Cells were transfected with oligonucleotides and 24 hours later were replated on 96 well plates. After culturing in the presence of drug for another three days, cell viability was assessed by the MTS assay.
(§8) Delivery of oligonucleotides into A2780/CP70 cells for RT-PCR and cell proliferation assays was achieved using Lipofectin (Life Technologies, Rockville, Md.) as per the manufacturer's procedure. The final concentration of oligonucleotides was 200 nM and final concentration of lipofectin was 10 μg/ml. After 4 hours incubation with the lipofectin-oligonucleotides mixture, cells were replaced with normal culture medium and treated as indicated for subsequent assays.
(§9) For A2780/CP70 cells transfected with oligonucleotides or mismatched controls, cells were harvested via trypsinization 16-24 hrs after transfection and transferred to 96 well plates at 5×10^3 cells per well. […] Twenty-four hours after transfer, cells in quadruplicate wells were treated with cisplatin (Sigma, St. Louis, Mo.) in 2 mM phosphate buffered saline (PBS) or oxaliplatin National Cancer Institute) in 4 mM PBS at serial dilutions in culture medium or with no drug and maintained for three more days. Cell survival was quantitated using the CellTiter 96 Non-radioactive Cell Proliferation Assay (Promega, Madison, Wis.). […] A Trypan blue exclusion assay was also performed to verify that the values obtained via the cell titer assay correlated to numbers of viable cells. Readings from quadruplicate wells were averaged, normalized with respect to readings obtained from cells unexposed to drug, and are presented +/− standard deviation. Statistical significance was assessed via ANOVA (one-way followed by Dunnett's multiple comparison test) using the Prism software package (GraphPad, Inc. San Diego, Calif.). P values reported are for the multiple comparison test.

For data set [2] the test system is unchanged. Kind of data set: MTS cell proliferation assay, sensitization to oxidizing agents (hydrogen peroxide, gamma radiation). The data set is classed as cell-based. To be noted: MTS assay after three days of growth; for sensitivity of cells to hydrogen peroxide: FIG. 7A; for sensitivity of cells to gamma radiation: FIG. 7B. An excerpt:
FIG. 7A is a graphic representation showing that oligonucleotides targeting CSB mRNA sensitize ovarian carcinoma cells to oxidative damage. A2780/CP70 ovarian carcinoma cells were transfected with oligonucleotides HYB 971 (SEQ ID NO:2) targeting CSB mRNA or control antisense oligonucleotide (HYB 1019) (SEQ ID NO:5) and then transferred to 96-well dishes for exposure to hydrogen peroxide at the indicated concentrations, followed by three days of growth in normal medium and subsequent assessment of cell proliferation via MTS assay.
FIG. 7B is a graphic representation showing that oligonucleotides targeting CSB mRNA sensitize ovarian carcinoma cells to oxidative damage. A2780/CP70 ovarian carcinoma cells were transfected with oligonucleotides HYB 971 (SEQ ID NO:2) targeting CSB mRNA or control antisense oligonucleotide (HYB 1019) (SEQ ID NO:5) and then transferred to 96-well dishes for exposure to gamma radiation at the indicated doses followed by three days of growth in normal medium and subsequent assessment of cell proliferation via MTS assay.
(§4) The cisplatin-resistant ovarian carcinoma cell line A2780/CP70 was maintained in RPMI-1640 medium supplemented with 10% fetal bovine serum, 1× penicillin -streptomycin-neomycin (PSN) (Gibco, Rockville, Md.) 2 mM L-glutamine and 0.2 units/ml insulin (Novo Nordisk Pharmaceuticals, Princeton, N.J.) at 37_C under a humidified 5% CO2 atmosphere. SV40-immortalized CS-B fibroblasts stably transfected with pCSB or control construct (generously provided by Dr. J. Hoeijmakers, Erasmus University, Rotterdam, Netherlands were maintained as previously described (Troelstra et al. (1992) Cell 71:939-953). SV40-immortalized CS-A cell lines (CS3BE.S3.G1+pDR2 and CS3BE.S3.G1+pDR2-CSA), were also maintained as described by Henning et al. (1995) Cell 82:555-564. DNA repair competent (GM 5659C), XP-A (GM2009), and XP-G (GM3021) fibroblasts were obtained from the National Institute of General Medical Sciences Human Genetic Mutant Cell Repository (Camden, N.J.) and maintained as described by Ratner et al. (1998) J. Biolog. Chem. 273:5184-5189. Gamma radiation was administered to cells in a 96 well plate with a Gamma Cell-40 Irradiator (Nordion International, Canada) while the 96 well plate was on ice.
(§5) P values reported are for the multiple comparison test.

The test system is the same in data set [3]. The experiment in a line: Plate assay of cell proliferation in the absence of added drug (cell number by hemacytometer). The data set is classed as cell-based. To be noted: absence of any other anti-cancer agents, two days in culture. The method, then: FIG. 8 is a graphic representation showing that anti-CSB oligonucleotides retard cell proliferation in the absence of cytotoxic agents. A2780/CP70 ovarian carcinoma cells were transfected with indicated oligonucleotides and maintained in culture media for two more days to assess cell proliferation rate.
A plate assay was also performed in the absence of added drug. Cells treated with oligonucleotides or mismatched controls were maintained in culture for two days. Cells were then trypsinized and cell number was determined using a hemacytometer. Numbers from three independent experiments were averaged and standard deviation was calculated. Statistical comparison was via paired t-test.

Another data set has as its system A2780/CP70 cells. The experiment in a line: Growth in soft agar (colony) assay with cisplatin or oxaliplatin. To be noted: in the presence of either cisplatin or oxaliplatin, colonies counted 10 days later. The data set is classed as cell-based. The method, then: An alternative method for assessing the ability of oligonucleotides to inhibit tumor cell proliferation was also utilized. In this method, the transfected cells were transferred to soft agar containing various concentrations of oxaliplatin or cisplatin. Resulting colonies were counted 10 days later.
For growth in soft agar assay, cells transfected the previous day with oligonucleotides as described above were suspended (10^4 cells/well) in 0.5 ml of 0.3% Difco Noble agar (Becton Dickinson & Co. Microbiology Systems, Sparks, Md.) supplemented with complete culture medium and layered over 0.5 ml of 0.8% agar-medium in chambers of 24 well plates. Drug was added (day 0) and colonies counted ten days later after staining with nitroblue tetrazolium (Sigma, St. Louis, Mo.) as previously described (Rockx, et al. (2000) Proc. Nat. Acad. Sci. (USA) 97:10503-8). For this assay, statistical comparison was via paired t-test.

In data set [4] the test system is A2780/CP70 ovarian carcinoma cells.
Procedure: as §7, §8, §9
The test system of data set [5] is Immortalized CS-A fibroblasts. Kind of data set: MTS proliferation assay of CS-A fibroblasts versus CSA-restored fibroblasts. The data set is classed as cell-based. To be noted: 3 days drug exposure. How it is done: as §4, §5
The next data set has as its system XP-G fibroblasts. The experiment in a line: MTS proliferation assay of XP-G fibroblasts versus NER proficient 5659C fibroblasts. The data set is classed as cell-based, human. How it is done:
(§6) Primary fibroblasts from XPA, XPG, or repair-competent individuals were exposed to oxaliplatin and assayed as described in FIGS. 1A-D.
as §4, §5

The next data set has as its system XP-A fibroblasts. Kind of data set: MTS proliferation assay of XP-A fibroblasts versus NER proficient 5659C fibroblasts. The data set is classed as cell-based, human. How it is done:
as §6, §4, §5

Data set [6] relates to Immortalized CS-B fibroblasts. Kind of data set: MTS proliferation assay of CS-B fibroblasts versus CSB-restored fibroblasts. To be noted: 3 days drug exposure. The data set is classed as cell-based. The method, then: as §4, §5

Read-outs that look alike come from different tables or passages of the source.

“5′(590)-d(CCAAACCTGCACGATACATC)-3′ [HYB 1040, reference compound]”: the “XPA mRNA levels” value with XPA mRNA is listed as “did not reduce the level of XPA mRNA”.
In the case of “5′(1612)-d(GCTACATAAGACCAGTGTGC)-3′ (DNA, backbone and methylation of C not given here) [HYB 1019, reference compound]”, the “CSB mRNA levels” value in the data set on CSB mRNA is given as “did not reduce the level of CSB mRNA”. For the same compound, the “sensitivity of the cells to cisplatin or oxaliplatin (cytotoxicity of both platinum agents)” value (“sensitivity of the cells” for short) in data set [1] is recorded as “did not alter the sensitivity”.
With “5′(750)-d(GGTCCATACTCATGTTGATG)-3′ (DNA, backbone and methylation of C not given here) [HYB 963]”, the “XPA mRNA levels” value in the data set on XPA mRNA is listed as “reduce XPA mRNA levels”. Further, in data set [1], the “reduction of the ID50 of cisplatin” value was “about 25%”, the “reduction of the ID50 of oxaliplatin” value was “about 25%” and the “sensitivity of the cells” value is “increase the sensitivity”.
Regarding “5′-(3212)-d(GGAACATCATGGTCTGCTCC)-3′ [HYB 971]”, in data set [2], the “sensitivity of cells to hydrogen peroxide” value is given as “significantly increased the sensitivity” and the “sensitivity of cells to gamma radiation” value is listed as “significantly increased the sensitivity”. Besides, in data set [3], the “reduction of proliferation compared to control oligonucleotide (HYB 1019) or sham transfected cells” value is reported as “about 50%”. Also, the “reduction of CSB mRNA levels” value with CSB mRNA is recorded as “about 50%”. Also, in data set [1], the “reduction of the ID50 of cisplatin” value came to 70%; the “reduction of the ID50 of oxaliplatin” value worked out at 50%; the “sensitivity of the cells” value was “substantially enhanced the cytotoxicity”; the “potentiation of cisplatin or oxaliplatin, dose response curves normalized to HYB 1019-transfected cells” value was “robust potentiation”.
For “5′(1110)-d(CTGACCTACCACTTCTGCAC)-3′ [HYB 964]”, the “fewer colonies than control HYB 1040 or lipofectin-only (sham) transfected cells” value in the data set on A2780/CP70 cells is “about 50%”. In addition, in the data set with XPA mRNA, the “XPA mRNA levels” value is “reduce XPA mRNA levels”. Moreover, in data set [1], the “reduction of the ID50 of cisplatin” value is “about 25%”, the “reduction of the ID50 of oxaliplatin” value was “about 25%” and the “sensitivity of the cells” value is given as “increase the sensitivity”.
Regarding “5′(2037)-d(GGTGACAGCAGCATTTGGAT)-3′ (DNA, backbone not given here) [HYB 969]”, in data set [2], the “sensitivity of cells to hydrogen peroxide” value is “significantly increased the sensitivity” and the “sensitivity of cells to gamma radiation” value is on record as “significantly increased the sensitivity”. The “reduction of proliferation compared to control oligonucleotide (HYB 1019) or sham transfected cells” value in [3] was “about 50%”. Moreover, the “sensitivity of the cells” value in data set [4] is “substantially enhanced the cytotoxicity”. Moreover, in the data set on CSB mRNA, the “reduction of CSB mRNA levels” value is reported as “about 50%”. In data set [1], the “reduction of the ID50 of cisplatin” value is reported as 70%; the “reduction of the ID50 of oxaliplatin” value amounted to 50%; the “potentiation of cisplatin or oxaliplatin, dose response curves normalized to HYB 1019-transfected cells” value was “robust potentiation”.
With `N.N.[Cl][Pt][Cl]` [cisplatin, CIS-diamminedichloroplatinum], in [5], the “sensitivity of fibroblasts lacking functional CSA gene product versus restored WT” value is reported as “significantly more sensitive”. For the same compound, the “sensitivity of XP-G fibroblasts versus NER proficient 5659C fibroblasts” value in the data set with XP-G fibroblasts is listed as “significantly more sensitive”. Moreover, in the data set with XP-A fibroblasts, the “sensitivity of XP-A fibroblasts versus NER proficient 5659C fibroblasts” value is listed as “significantly more sensitive”. In data set [6], the “sensitivity of fibroblasts lacking functional CSB gene product versus restored WT” value is “significantly more sensitive”.
For `O=C([O-])C(=O)[O-].[NH-][C@@H]1CCCC[C@H]1[NH-].[Pt+4]` (relative stereo) [oxaliplatin, Cis [(1R, 2R) 1,2-cyclohexanediamine-N,N′ oxalato (2-)-O,O′] platinum], the “sensitivity of fibroblasts lacking functional CSA gene product versus restored WT” value in data set [5] is given as “significantly more sensitive”. Also, the “sensitivity of XP-G fibroblasts versus NER proficient 5659C fibroblasts” value with XP-G fibroblasts is listed as “significantly more sensitive”. Also, in the data set with XP-A fibroblasts, the “sensitivity of XP-A fibroblasts versus NER proficient 5659C fibroblasts” value is “significantly more sensitive”. Besides, the “sensitivity of fibroblasts lacking functional CSB gene product versus restored WT” value in data set [6] is recorded as “significantly more sensitive”.
